Each structure is given as a SMILES string.

This assay deals with T1, KRAS G12C 1-169, his-tagged protein, GDP-loaded (Homo sapiens, UniProt P01116, G12C).
T1 construct: KRAS G12C 1-169, his-tagged protein, GDP-loaded was diluted to 2 μm in buffer
As to the kind of experiment: Biochemical assay: covalent binding to KRAS G12C analyzed by mass spectrometry. The settings on record: protein diluted to 2 μm, room temperature for 24 hrs, method lists 100, 30 and 10 μM final compound concentration, not stated which applies. The method, then:
Test compounds were prepared as 10 mM stock solutions in DMSO (Fisher cat# BP-231-100). KRAS G12C 1-169, his-tagged protein, GDP-loaded was diluted to 2 μm in buffer (20 mM Hepes, 150 mM NaCl, 1 mM MgCl2). Compounds were tested for activity as follows:
Compounds were diluted to 50× final test concentration in DMSO in 96-well storage plates. Compound stock solutions were vortexed before use and observed carefully for any sign of precipitation. Dilutions were as follow: • For 100 μM final compound concentration, compounds were diluted to 5000 μM (5 μl 10 mM compound stock +5 μl DMSO and mixed well by pipetting. • For 30 μM final compound concentration, compounds were diluted to 1500 μM (3 μl 10 mM compound stock +17 μl DMSO) and mixed well by pipetting. • For 10 μM final compound concentration, compounds were diluted to 500 μM (2 μl 10 mM compound stock +38 μl DMSO) and mixed well by pipetting. 49 μl of the stock protein solution was added to each well of a 96-well PCR plate (Fisher cat#1423027). 1 μl of the diluted 50× compounds were added to appropriate wells in the PCR plate using 12-channel pipettor. Reactions were mixed carefully and thoroughly by pipetting up/down with a 200 μl multi-channel pipettor. The plate was sealed well with aluminum plate seal, and stored in drawer at room temperature for 24 hrs. 5 μl of 2% formic acid (Fisher cat# A117) in DI H2O was then added to each well followed by mixing with a pipette. The plate was then resealed with aluminum seal and stored on dry ice until analyzed as described below.
The above described assays were analyzed by mass spectrometry according to the following procedure:
The MS instrument is set to positive polarity, 2 GHz resolution, and low mass (1700) mode and allowed to equilibrate for 30 minutes. The instrument is then calibrated, switched to acquisition mode and the appropriate method loaded.
After another 30 minute equilibration time, a blank batch (i.e., buffer) is run to ensure equipment is operating properly. The samples are thawed at 37° C. for 10 minutes, briefly centrifuged, and transfer to the bench top. Wells A1 and H12 are spiked with 1 uL 500 uM internal standard peptide, and the plates centrifuged at 2000×g for 5 minutes. The method is then run and masses of each individual well recorded.
The masses (for which integration data is desired) for each well are pasted into the platemap and exported from the analysis. Masses for the internal standards are exported as well. The data at 50 ppm is extracted for the +19 charge state, and identity of well A1 is assigned using the internal standard spike and integrated. Peak data is exported as a TOF list and the above steps are repeated individually, for the +20, 21, 22, 23, 24, and 25 charge states.
As for `C=CS(=O)(=O)NC[C@@H]1C[C@@H]2O[C@H](COCc3ccccc3)[C@@H](OCc3ccccc3)[C@@H]2O1` [Compound I-5], the Binding % entry was “+++ (+++ indicates binding activity from greater than 10% to 15%)”.

As for `C=Cc1cccc(S(=O)(=O)NC[C@@H]2C[C@@H]3O[C@H](COCc4ccccc4)[C@@H](OCc4ccccc4)[C@@H]3O2)c1` [Compound I-13], the Binding % entry is “++++ (++++ indicates binding activity from greater than 15%)”.

Take `C=Cc1cccc(S(=O)(=O)NCCOc2ccc3ccccc3c2)c1` [II-8]: the Binding % entry was “+++ (+++ indicates binding activity from greater than 10% to 15%)”.

On to `C=CS(=O)(=O)NCCNc1ccc2ccccc2c1` [II-4], for which the Binding % result is reported as “++ (++ indicates binding activity from greater than 5% to 10%)”.

Regarding `C=Cc1ccc(S(=O)(=O)NCCNc2ccc3ccccc3c2)cc1` [II-5], the Binding % entry was “++ (++ indicates binding activity from greater than 5% to 10%)”.

Consider `C=Cc1cccc(S(=O)(=O)NCCOc2cccc3ccccc23)c1` [II-7], for which the Binding % result was “++ (++ indicates binding activity from greater than 5% to 10%)”.

Turning to `C=Cc1ccc(S(=O)(=O)NC[C@H]2C[C@@H]3O[C@H](CO)[C@@H](OCc4ccccc4)[C@@H]3O2)cc1` [Compound I-19], the Binding % result was “++ (++ indicates binding activity from greater than 5% to 10%)”.

As to `C=Cc1cccc(S(=O)(=O)NC[C@@H]2C[C@@H]3O[C@H](CO)[C@@H](OCc4ccccc4)[C@@H]3O2)c1` [Compound I-20], the Binding % result is recorded as “+++ (+++ indicates binding activity from greater than 10% to 15%)”.

With `C=Cc1ccccc1S(=O)(=O)NCCOc1ccc2ccccc2c1` [II-9], the Binding % entry is on record as “++ (++ indicates binding activity from greater than 5% to 10%)”.

For `C=Cc1ccc(S(=O)(=O)NCCOc2ccc3ccccc3c2)cc1` [II-6], the Binding % entry is listed as “+++ (+++ indicates binding activity from greater than 10% to 15%)”.

For `C=Cc1ccccc1S(=O)(=O)NC[C@@H]1C[C@@H]2O[C@H](CO)[C@@H](OCc3ccccc3)[C@@H]2O1` [Compound I-17], the Binding % entry is recorded as “++++ (++++ indicates binding activity from greater than 15%)”.

On to `C=CS(=O)(=O)NCCOc1cccc2ccccc12` [II-2], for which the Binding % entry is listed as “+++ (+++ indicates binding activity from greater than 10% to 15%)”.

Take `C=Cc1ccccc1S(=O)(=O)NCCOc1cccc2ccccc12` [II-12]: the Binding % entry is recorded as “+++ (+++ indicates binding activity from greater than 10% to 15%)”.

With `C=CS(=O)(=O)NCCOc1ccc2ccccc2c1` [II-1], the Binding % entry is “+++ (+++ indicates binding activity from greater than 10% to 15%)”.

For `C=Cc1cccc(S(=O)(=O)NC[C@H]2C[C@@H]3O[C@H](COCc4ccccc4)[C@@H](OCc4ccccc4)[C@@H]3O2)c1` [Compound I-11], the Binding % entry is “++ (++ indicates binding activity from greater than 5% to 10%)”.

As to `C=Cc1ccccc1S(=O)(=O)NC[C@@H]1C[C@@H]2O[C@H](COCc3ccccc3)[C@@H](OCc3ccccc3)[C@@H]2O1` [Compound I-15], the Binding % entry is on record as “+++ (+++ indicates binding activity from greater than 10% to 15%)”.

Take `C=Cc1ccccc1S(=O)(=O)NCCNc1ccc2ccccc2c1` [II-13]: the Binding % entry is reported as “+++ (+++ indicates binding activity from greater than 10% to 15%)”.

Take `C=Cc1cccc(S(=O)(=O)NC[C@H]2C[C@@H]3O[C@H](CO)[C@@H](OCc4ccccc4)[C@@H]3O2)c1` [Compound I-16]: the Binding % entry is “++ (++ indicates binding activity from greater than 5% to 10%)”.

With `C=Cc1ccc(S(=O)(=O)NCCNc2cccc3ccccc23)cc1` [II-10], the Binding % result is recorded as “+++ (+++ indicates binding activity from greater than 10% to 15%)”.

As for `C=Cc1ccccc1S(=O)(=O)NC[C@H]1C[C@@H]2O[C@H](CO)[C@@H](OCc3ccccc3)[C@@H]2O1` [Compound I-18], the Binding % result is recorded as “+++ (+++ indicates binding activity from greater than 10% to 15%)”.

Regarding `C=CS(=O)(=O)NC[C@H]1C[C@@H]2O[C@H](CO)[C@@H](OCc3ccccc3)[C@@H]2O1` [Compound I-7], the Binding % result is “++ (++ indicates binding activity from greater than 5% to 10%)”.

Turning to `C=CC(=O)NC[C@@H]1C[C@@H]2O[C@H](COCc3ccccc3)[C@@H](OCc3ccccc3)[C@@H]2O1` [Compound I-4], the Binding % result is listed as “+ (+ indicates binding activity from 0.5% to 5%)”.

For `C=CC(=O)NC[C@@H]1C[C@@H]2O[C@H](CO)[C@@H](OCc3ccccc3)[C@@H]2O1` [Compound I-2], the Binding % result is on record as “+ (+ indicates binding activity from 0.5% to 5%)”.

`C=Cc1ccc(S(=O)(=O)NC[C@H]2C[C@@H]3O[C@H](CO)[C@@H](OCc4ccccc4)[C@@H]3O2)cc1` [Compound I-9]: the Binding % result is given as “+++ (+++ indicates binding activity from greater than 10% to 15%)”.

`C=CS(=O)(=O)NCCNc1cccc2ccccc12` [II-3]: the Binding % entry is listed as “+++ (+++ indicates binding activity from greater than 10% to 15%)”.

For the compound `C=CC(=O)NCC1C[C@@H]2O[C@H](CO)[C@@H](OCc3ccccc3)[C@@H]2O1` (some centres unmarked) [Compound I-1], the Binding % entry is “+ (+ indicates binding activity from 0.5% to 5%)”.

On to `C=Cc1ccccc1S(=O)(=O)NC[C@H]1C[C@@H]2O[C@H](COCc3ccccc3)[C@@H](OCc3ccccc3)[C@@H]2O1` [Compound I-12], for which the Binding % entry is “+++ (+++ indicates binding activity from greater than 10% to 15%)”.

`C=CC(=O)NC[C@H]1C[C@@H]2O[C@H](COCc3ccccc3)[C@@H](OCc3ccccc3)[C@@H]2O1` [Compound I-3]: the Binding % entry is “+ (+ indicates binding activity from 0.5% to 5%)”.

Consider `C=Cc1ccc(S(=O)(=O)NC[C@@H]2C[C@@H]3O[C@H](COCc4ccccc4)[C@@H](OCc4ccccc4)[C@@H]3O2)cc1` [Compound I-14], for which the Binding % result is “+++ (+++ indicates binding activity from greater than 10% to 15%)”.

For `C=CS(=O)(=O)NC[C@H]1C[C@@H]2O[C@H](COCc3ccccc3)[C@@H](OCc3ccccc3)[C@@H]2O1` [Compound I-6], the Binding % result is on record as “+++ (+++ indicates binding activity from greater than 10% to 15%)”.

As to `C=Cc1ccccc1S(=O)(=O)NCCNc1cccc2ccccc12` [II-11], the Binding % entry is “++++ (++++ indicates binding activity from greater than 15%)”.

As to `C=Cc1ccc(S(=O)(=O)NC[C@H]2C[C@@H]3O[C@H](COCc4ccccc4)[C@@H](OCc4ccccc4)[C@@H]3O2)cc1` [Compound I-10], the Binding % entry was “++++ (++++ indicates binding activity from greater than 15%)”.
